Columns and labels:
[1] = biological target: T1, Muscarinic acetylcholine receptor M4 (Homo sapiens, UniProt P08173); test: Positive allosteric modulation of Gqi5-fused human M4 AChR assessed as increase in acetylcholine-induced calcium mobilization; type: functional
T1 sequence (P08173 whole entry): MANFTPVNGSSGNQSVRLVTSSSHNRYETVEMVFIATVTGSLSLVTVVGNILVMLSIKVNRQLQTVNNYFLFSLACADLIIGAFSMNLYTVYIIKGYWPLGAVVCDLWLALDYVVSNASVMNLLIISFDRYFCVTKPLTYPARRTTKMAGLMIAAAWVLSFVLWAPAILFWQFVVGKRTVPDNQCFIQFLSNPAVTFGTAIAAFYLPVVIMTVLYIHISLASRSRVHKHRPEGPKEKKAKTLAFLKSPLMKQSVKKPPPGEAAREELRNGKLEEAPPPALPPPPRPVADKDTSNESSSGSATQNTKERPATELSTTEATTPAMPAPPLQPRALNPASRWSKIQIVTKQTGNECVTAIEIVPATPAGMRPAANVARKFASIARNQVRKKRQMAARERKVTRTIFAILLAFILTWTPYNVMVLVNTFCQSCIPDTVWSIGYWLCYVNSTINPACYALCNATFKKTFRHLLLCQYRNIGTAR

[2] = biological target: T2, Muscarinic acetylcholine receptor M4 (Homo sapiens) (UniProt P08173); test: Positive allosteric modulation of Gqi5-fused human M4 AChR assessed as increase in acetylcholine-induced calcium mobilization relative to acetylcholine alone; type: functional
T2 sequence (whole entry): T1 sequence (P08173 whole entry)

[3] = Fraction unbound in rat plasma; type: ADME, cell-free
[4] = tested on: Cytochrome P450; test: Inhibition of CYP450 (unknown origin); type: ADME, protein assay; settings: human
[5] = Brain to plasma partition coefficient, Kp of the compound in rat; type: ADME, cell-free
[6] = biological target: P-gp (ABCB1) (Homo sapiens, UniProt P08183); test: Substrate activity at human P-gp assessed as efflux ratio; type: ADME; settings: not told
Sequence of P-gp (ABCB1) (P08183 whole entry): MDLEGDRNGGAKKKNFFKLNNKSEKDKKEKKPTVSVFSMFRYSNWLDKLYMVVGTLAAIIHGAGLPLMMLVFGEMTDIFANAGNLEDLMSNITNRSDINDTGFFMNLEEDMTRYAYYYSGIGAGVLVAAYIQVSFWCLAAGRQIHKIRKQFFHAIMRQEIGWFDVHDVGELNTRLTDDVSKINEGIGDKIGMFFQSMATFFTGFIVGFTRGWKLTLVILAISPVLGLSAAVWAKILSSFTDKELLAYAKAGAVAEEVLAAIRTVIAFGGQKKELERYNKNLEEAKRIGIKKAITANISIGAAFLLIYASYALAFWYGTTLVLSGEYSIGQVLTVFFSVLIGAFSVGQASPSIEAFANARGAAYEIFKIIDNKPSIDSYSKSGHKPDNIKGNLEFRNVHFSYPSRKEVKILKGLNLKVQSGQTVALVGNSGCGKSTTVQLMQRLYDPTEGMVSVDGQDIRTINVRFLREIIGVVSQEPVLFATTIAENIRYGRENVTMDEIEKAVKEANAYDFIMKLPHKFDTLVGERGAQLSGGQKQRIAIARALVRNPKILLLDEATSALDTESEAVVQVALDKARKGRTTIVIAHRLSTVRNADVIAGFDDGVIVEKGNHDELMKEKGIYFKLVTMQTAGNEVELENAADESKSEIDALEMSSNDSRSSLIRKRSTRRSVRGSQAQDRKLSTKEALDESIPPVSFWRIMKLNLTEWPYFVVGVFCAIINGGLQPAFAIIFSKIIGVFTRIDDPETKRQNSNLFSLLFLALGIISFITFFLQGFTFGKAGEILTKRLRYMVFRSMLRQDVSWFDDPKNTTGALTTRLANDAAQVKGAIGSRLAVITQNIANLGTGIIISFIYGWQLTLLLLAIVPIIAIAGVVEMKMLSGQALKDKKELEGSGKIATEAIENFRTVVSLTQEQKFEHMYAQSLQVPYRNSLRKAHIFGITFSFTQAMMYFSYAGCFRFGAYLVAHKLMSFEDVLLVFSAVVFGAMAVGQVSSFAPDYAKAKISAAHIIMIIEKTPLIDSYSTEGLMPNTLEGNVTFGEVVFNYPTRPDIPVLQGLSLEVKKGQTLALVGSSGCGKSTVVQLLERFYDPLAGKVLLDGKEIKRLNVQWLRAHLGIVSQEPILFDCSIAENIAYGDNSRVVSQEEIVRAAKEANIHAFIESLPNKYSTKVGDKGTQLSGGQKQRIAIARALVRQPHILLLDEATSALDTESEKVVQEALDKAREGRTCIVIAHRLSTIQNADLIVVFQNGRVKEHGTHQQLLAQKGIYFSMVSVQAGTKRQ

[7] = biological target: T3, Cytochrome P450 1A2 (Homo sapiens, UniProt P05177); test: Inhibition of CYP1A2 (unknown origin); type: ADME
T3 sequence (P05177 whole entry): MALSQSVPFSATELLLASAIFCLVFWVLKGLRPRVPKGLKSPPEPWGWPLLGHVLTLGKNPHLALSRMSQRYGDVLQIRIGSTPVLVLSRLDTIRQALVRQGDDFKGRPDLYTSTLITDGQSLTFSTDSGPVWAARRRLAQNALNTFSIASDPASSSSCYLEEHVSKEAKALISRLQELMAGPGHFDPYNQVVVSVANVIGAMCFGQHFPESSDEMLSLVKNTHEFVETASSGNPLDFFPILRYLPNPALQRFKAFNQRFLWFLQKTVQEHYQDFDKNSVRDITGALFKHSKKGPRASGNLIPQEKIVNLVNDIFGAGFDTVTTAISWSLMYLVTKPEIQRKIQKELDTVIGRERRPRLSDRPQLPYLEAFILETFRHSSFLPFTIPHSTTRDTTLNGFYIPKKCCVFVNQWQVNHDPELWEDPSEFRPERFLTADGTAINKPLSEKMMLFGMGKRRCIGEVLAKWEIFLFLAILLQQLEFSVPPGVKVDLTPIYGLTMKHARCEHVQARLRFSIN

[8] = biological target: Cytochrome P450 2C9 (Homo sapiens, UniProt P11712); test: Inhibition of CYP2C9 (unknown origin); type: ADME
Sequence of Cytochrome P450 2C9 (P11712 whole entry): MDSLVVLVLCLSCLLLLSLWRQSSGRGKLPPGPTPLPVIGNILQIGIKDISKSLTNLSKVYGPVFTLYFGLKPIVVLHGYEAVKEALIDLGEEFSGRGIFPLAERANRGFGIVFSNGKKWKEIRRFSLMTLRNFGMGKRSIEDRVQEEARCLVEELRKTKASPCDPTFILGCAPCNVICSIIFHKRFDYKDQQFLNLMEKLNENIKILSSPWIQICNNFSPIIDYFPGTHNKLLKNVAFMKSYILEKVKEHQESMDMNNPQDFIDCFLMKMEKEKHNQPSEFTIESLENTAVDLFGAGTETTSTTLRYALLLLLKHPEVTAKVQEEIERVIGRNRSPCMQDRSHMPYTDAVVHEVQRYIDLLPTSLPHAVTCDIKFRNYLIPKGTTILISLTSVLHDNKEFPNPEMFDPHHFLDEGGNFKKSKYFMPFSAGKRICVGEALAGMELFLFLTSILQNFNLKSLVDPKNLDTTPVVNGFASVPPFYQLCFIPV

SMILES | EC50 [1] | Emax [2] | fraction unbound [3] | inhibition (INH) [4] | further results
COc1ccc(CNc2n[nH]c3c2sc2nc(C)cc(C)c23)cc1 | 2.2 µM | 67% | – | – | Fu [3]: < 0.002; INH [4]: < 5 µM
COc1ccc(CNC(=O)c2cc3c(C)c(C)nnc3s2)cc1F | 1.5 µM | 66% | < 0.005 | Active | –
COc1ccc(CNc2nn(C)c3c2sc2nnc(C)c(C)c23)cc1 | 0.04 µM | 79% | – | – | Kp [5]: 0.25; Fu [3]: 0.02; INH [4]: > 30 µM
Cc1nnc2sc3c(NCc4ccc(S(C)(=O)=O)c(F)c4)nn(C)c3c2c1C | 0.16 µM | 58% | – | – | Fu [3]: 0.05; INH [4]: > 30 µM; efflux ratio [6]: > 10
Cc1cc(C)c2c(n1)sc1c(NCC3CC3)n[nH]c12 | 2 µM | 67% | – | – | –
Cc1cc(C)c2c(C)c(C(=O)NCc3ccc(S(C)(=O)=O)cc3)sc2n1 | 6.4 µM | 58% | < 0.005 | Active | –
Cc1cc(C)c2c(n1)sc1c(NCc3ccco3)n[nH]c12 | 1.2 µM | 76% | – | – | –
Cc1nnc2sc3c(NCc4ccc5c(c4)OCCO5)nn(C)c3c2c1C | 0.06 µM | 91% | – | – | –
Cc1nnc2sc3c(NCC4CC4)nn(C)c3c2c1C | 0.62 µM | 84% | – | – | –
Cc1nnc2sc(C(=O)NC3COC3)c(C3CC3)c2c1C | > 10 µM | 38% | < 0.005 | Active | –
Cc1cc(C)c2c(C)c(C(=O)NCc3ccc(OC(F)(F)F)cc3)sc2n1 | > 10 µM | 29% | < 0.005 | Active | –
Cc1cc(C)c2c(n1)sc1c(NCc3ccc(F)cc3)n[nH]c12 | 1.1 µM | 62% | – | – | –
COc1ccc(CNC(=O)c2cc3c(C)cc(C)nc3s2)cc1 | 5.1 µM | 53% | < 0.005 | Active | –
Cc1nc2sc3c(NCc4ccccc4)nn(C)c3c2c(C)c1Cl | > 10 µM | 39% | – | – | –
Cc1cc(C)c2c(C)c(C(=O)NCc3ccc4c(c3)CCO4)sc2n1 | 5.9 µM | 50% | < 0.005 | Active | –
COc1ccc(CNC(=O)c2sc3nc(C)cc(C)c3c2C)cc1 | 2.7 µM | 49% | < 0.005 | Active | –

SMILES | EC50 [1] | Emax [2] | fraction unbound [3] | inhibition (INH) [4] | further results
Cc1nc2sc3c(NCc4ccc(F)cc4)nn(C)c3c2c(C)c1Cl | > 10 µM | 56% | – | – | –
Cc1cc(C)c2c(n1)sc1c(NCC3CCCC3)n[nH]c12 | 3.8 µM | 65% | – | – | –
Cc1nnc2sc3c(NCc4ccco4)nn(C)c3c2c1C | 0.69 µM | 91% | – | – | –
Cc1nc2sc3c(NCc4ccco4)nn(C)c3c2c(C)c1Cl | 0.12 µM | 59% | – | – | Fu [3]: < 0.001; IC50 [7]: < 0.1 µM; IC50 [8]: 1 µM
COc1ccc(CNC(=O)c2sc3nnc(C)c(C)c3c2N)cc1F | – | 75% | – | – | –
Cc1nnc2sc3c(NCC4CCCO4)nn(C)c3c2c1C (stereo unspecified) | 0.18 µM | 102% | – | – | –
Cc1cc(C)c2c(n1)sc1c(NCc3ccccc3)n[nH]c12 | 1 µM | 66% | – | – | –
Cc1nc2sc3c(NCC4CC4)nn(C)c3c2c(C)c1Cl | 0.23 µM | 67% | – | – | Fu [3]: < 0.001; IC50 [7]: < 0.1 µM; IC50 [8]: 1 µM
COc1ccc(CNc2nn(C)c3c2sc2nc(C)c(Cl)c(C)c23)cc1 | > 10 µM | 51% | – | – | –
CCc1c(C(=O)NCc2ccc(S(C)(=O)=O)cc2)sc2nc(C)cc(C)c12 | 2.7 µM | 57% | < 0.005 | Active | –
Cc1cc(C)c2c(C)c(C(=O)NCc3ccc4c(c3)OCCO4)sc2n1 | 2.1 µM | 56% | < 0.005 | Active | –
COc1ccc(CNC(=O)c2sc3nnc(C)c(C)c3c2C)cc1F | 2.1 µM | 56% | < 0.005 | Active | –
CCc1c(C(=O)NCc2ccc(OC)c(F)c2)sc2nnc(C)c(C)c12 | 2.2 µM | 73% | < 0.005 | Active | –
COc1ccc(CNC(=O)c2sc3nnc(C)c(C)c3c2C2CC2)cc1F | 5.6 µM | 35% | < 0.005 | Active | –
CSc1ccc(CNC(=O)c2sc3nc(C)cc(C)c3c2C)cc1 | 1.5 µM | 45% | < 0.005 | Active | –

Reference: ChEMBL document CHEMBL4371085, “Novel M4 positive allosteric modulators derived from questioning the role and impact of a presumed intramolecular hydrogen-bonding motif in β-amino carboxamide-harboring ligands” (Bioorg Med Chem Lett, 2019)
